We go through eight molecules from BindingDB's records for doi:10.1021/jm060978s (Daiichi Asubio Medical Research Laboratories, 2006).

Experiment in all cases: Enzyme Inhibition Assay
In one experiment the target is Coagulation factor X (Homo sapiens, UniProt P00742).
Another experiment deals with Coagulation factor XI (Homo sapiens, UniProt P03951). Conditions: pH 7.4; 30 °C.
The target of another experiment is Prothrombin (Homo sapiens, UniProt P00734).

Sequence of Coagulation factor XI (P03951 19-387 limits assumed): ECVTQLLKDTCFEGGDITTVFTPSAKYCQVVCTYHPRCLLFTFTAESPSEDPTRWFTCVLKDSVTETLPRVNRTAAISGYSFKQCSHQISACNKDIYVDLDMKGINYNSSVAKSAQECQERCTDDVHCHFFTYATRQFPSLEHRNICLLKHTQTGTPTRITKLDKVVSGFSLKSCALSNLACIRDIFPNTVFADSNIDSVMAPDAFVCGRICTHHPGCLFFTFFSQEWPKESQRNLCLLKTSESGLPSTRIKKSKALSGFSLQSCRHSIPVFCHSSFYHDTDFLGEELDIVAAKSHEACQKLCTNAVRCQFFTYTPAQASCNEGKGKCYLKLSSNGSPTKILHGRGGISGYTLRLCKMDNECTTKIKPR
Sequence of Coagulation factor XI (P03951 388-625 limits assumed): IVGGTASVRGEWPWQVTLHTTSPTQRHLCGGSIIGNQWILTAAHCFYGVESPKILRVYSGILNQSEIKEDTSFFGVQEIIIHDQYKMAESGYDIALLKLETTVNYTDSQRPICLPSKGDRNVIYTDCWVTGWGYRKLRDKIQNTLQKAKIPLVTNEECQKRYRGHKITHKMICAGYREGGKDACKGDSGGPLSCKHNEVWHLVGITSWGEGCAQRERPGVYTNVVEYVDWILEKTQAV
Sequence of Coagulation factor X (P00742 41-179 limits assumed): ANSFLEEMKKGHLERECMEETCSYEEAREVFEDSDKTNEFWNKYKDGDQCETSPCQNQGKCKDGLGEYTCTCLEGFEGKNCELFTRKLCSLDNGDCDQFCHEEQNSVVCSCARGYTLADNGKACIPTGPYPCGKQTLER
Sequence of Coagulation factor X (P00742 235-488 limits assumed): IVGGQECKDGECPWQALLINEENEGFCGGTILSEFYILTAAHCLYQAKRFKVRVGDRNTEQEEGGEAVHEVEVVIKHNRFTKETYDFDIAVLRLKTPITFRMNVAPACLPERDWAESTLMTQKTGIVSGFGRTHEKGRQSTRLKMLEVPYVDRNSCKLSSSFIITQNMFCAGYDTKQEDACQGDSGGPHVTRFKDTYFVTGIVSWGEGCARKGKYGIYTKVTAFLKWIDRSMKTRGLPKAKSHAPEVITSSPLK

As for `CC(C)[C@H](NC(=O)[C@H](Cc1ccccc1)NC(=O)Nc1ccccc1)C(=O)N[C@@H](CCCN=C(N)N)C(=O)c1nccs1` [(2S)-N-[(2S)-5-carbamimidamido-1-oxo-1-(1,3-thiazol-2-yl)pentan-2-yl]-3-methyl-2-[(2S)-3-phenyl-2-[(phenylcarbamoyl)amino]propanamido]butanamide], the IC50 (commonly the midpoint of a concentration-inhibition curve) at Coagulation factor X was above 20 µM; against Coagulation factor XI it was 1920 nM; against Prothrombin, 935 nM.

At Coagulation factor XI, `CC(C)[C@H](NC(=O)[C@H](Cc1ccccc1)NS(=O)(=O)c1ccc(Cl)c(Cl)c1)C(=O)N[C@@H](CCCN=C(N)N)C(=O)c1nccs1` [(2S)-N-[(2S)-5-carbamimidamido-1-oxo-1-(1,3-thiazol-2-yl)pentan-2-yl]-2-[(2S)-2-[(3,4-dichlorobenzene)sulfonamido]-3-phenylpropanamido]-3-methylbutanamide] returned a concentration for half-maximal inhibition (IC50) of 2300 nM.

As to `CC(C)[C@H](NC(=O)[C@H](Cc1ccccc1)NC(=O)Cc1cccs1)C(=O)N[C@@H](CCCN=C(N)N)C(=O)c1nccs1` [(2S)-N-[(2S)-5-carbamimidamido-1-oxo-1-(1,3-thiazol-2-yl)pentan-2-yl]-3-methyl-2-[(2S)-3-phenyl-2-[1-(thiophen-2-yl)acetamido]propanamido]butanamide], 2600 nM corresponded to half-maximal inhibition at Coagulation factor XI (IC50).

`CC(C)[C@H](NC(=O)[C@H](Cc1ccccc1)NC(=O)c1ccco1)C(=O)N[C@@H](CCCN=C(N)N)C(=O)c1nccs1` [(2S)-N-[(2S)-5-carbamimidamido-1-oxo-1-(1,3-thiazol-2-yl)pentan-2-yl]-2-[(2S)-2-(furan-2-ylformamido)-3-phenylpropanamido]-3-methylbutanamide] came in with an IC50 against Coagulation factor XI of 2200 nM.

On to `CC(C)[C@H](NC(=O)[C@H](Cc1ccccc1)NC(=O)NCc1ccc(F)cc1)C(=O)N[C@@H](CCCN=C(N)N)C(=O)c1nccs1` [(2S)-N-[(2S)-5-carbamimidamido-1-oxo-1-(1,3-thiazol-2-yl)pentan-2-yl]-2-[(2S)-2-({[(4-fluorophenyl)methyl]carbamoyl}amino)-3-phenylpropanamido]-3-methylbutanamide], for which the half-maximal inhibitory concentration (IC50) at Coagulation factor XI was 160 nM; against Prothrombin, 4300 nM.

For `CCOC(=O)C(Cc1ccccc1)NC(=O)N[C@@H](Cc1ccccc1)C(=O)N[C@H](C(=O)N[C@@H](CCCN=C(N)N)C(=O)c1nccs1)C(C)C` (stereo partly drawn) [ethyl 2-({[(1S)-1-{[(1S)-1-{[(2S)-5-carbamimidamido-1-oxo-1-(1,3-thiazol-2-yl)pentan-2-yl]carbamoyl}-2-methylpropyl]carbamoyl}-2-phenylethyl]carbamoyl}amino)-3-phenylpropanoate], the half-maximal inhibitory concentration (IC50) stood at 14.3 µM against Coagulation factor X, 258 nM against Coagulation factor XI and 2100 nM against Prothrombin.

Consider `CCOC(=O)C(CC(C)C)NC(=O)N[C@@H](Cc1ccccc1)C(=O)N[C@H](C(=O)N[C@@H](CCCN=C(N)N)C(=O)c1nccs1)C(C)C` (stereo partly drawn) [ethyl 2-({[(1S)-1-{[(1S)-1-{[(2S)-5-carbamimidamido-1-oxo-1-(1,3-thiazol-2-yl)pentan-2-yl]carbamoyl}-2-methylpropyl]carbamoyl}-2-phenylethyl]carbamoyl}amino)-4-methylpentanoate], for which the 50% inhibitory concentration (IC50) is 15.4 µM on Coagulation factor X, 403 nM against Coagulation factor XI and 2100 nM against Prothrombin.

Turning to `CC(C)[C@H](NC(=O)[C@H](Cc1ccccc1)NC(=O)NCc1ccc(Cl)c(Cl)c1)C(=O)N[C@@H](CCCN=C(N)N)C(=O)c1nccs1` [(2S)-N-[(2S)-5-carbamimidamido-1-oxo-1-(1,3-thiazol-2-yl)pentan-2-yl]-2-[(2S)-2-({[(3,4-dichlorophenyl)methyl]carbamoyl}amino)-3-phenylpropanamido]-3-methylbutanamide], the IC50 at Coagulation factor X worked out at 14.2 µM; on Coagulation factor XI it was 93 nM; against Prothrombin it was 6700 nM.
